Paper PMC3014912 (Journal of molecular modeling, 2010)

Target: T1, human carboxylesterase 1 (hCE1) (Homo sapiens, UniProt P23141)
T1 sequence (P23141 18-567): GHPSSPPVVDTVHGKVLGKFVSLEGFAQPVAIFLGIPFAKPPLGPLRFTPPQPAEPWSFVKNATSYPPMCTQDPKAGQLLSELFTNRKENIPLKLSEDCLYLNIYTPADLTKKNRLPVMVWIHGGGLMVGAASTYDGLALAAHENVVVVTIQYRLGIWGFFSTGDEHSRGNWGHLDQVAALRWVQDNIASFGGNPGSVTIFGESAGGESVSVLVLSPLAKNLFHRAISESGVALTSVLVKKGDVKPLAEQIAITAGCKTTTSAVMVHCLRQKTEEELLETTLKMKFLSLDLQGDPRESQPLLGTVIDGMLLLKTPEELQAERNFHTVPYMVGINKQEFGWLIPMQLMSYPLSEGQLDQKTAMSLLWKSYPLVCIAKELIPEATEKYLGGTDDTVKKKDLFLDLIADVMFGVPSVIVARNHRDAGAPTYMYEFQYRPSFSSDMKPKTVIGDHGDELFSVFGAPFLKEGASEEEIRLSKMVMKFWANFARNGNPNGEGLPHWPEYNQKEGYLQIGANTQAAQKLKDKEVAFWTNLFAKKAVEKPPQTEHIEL
Assay: hCE1 inhibition, p-nitrophenyl acetate hydrolysis
Assay type: biochemical

SMILES	IC50 [µM]
CCCCCCCCOCC(=O)C(F)(F)F [Compound 4, 1,1,1-trifluoro-3-octyloxypropan-2-one]	0.02
CCCCCCCCCCC(C)=O [Compound 9, 2-dodecanone, reference compound]	> 1000
